Results: the NIST ThermoML archive (doi:10.1021/je060189f)

Experiment: mn = molality of the nth substance listed, in mol/kg
Details: 101 kPa, Liquid

O=C(O)CCCCC(=O)O [1,6-hexanedioic acid] + O
Details	mass density [kg/m3]	viscosity [mPa·s]
293.15 K, m1 = 0.00708	998.48	1.006
293.15 K, m1 = 0.01399	998.72	1.008
293.15 K, m1 = 0.02122	999.01	1.01
293.15 K, m1 = 0.02857	999.2	1.014
293.15 K, m1 = 0.05669	1000.16	1.023
293.15 K, m1 = 0.08401	1000.95	1.035
293.15 K, m1 = 0.1125	1001.81	1.047
293.15 K, m1 = 0.143	1002.78	1.06
298.15 K, m1 = 0.01287	997.49	–
298.15 K, m1 = 0.0154	997.52	0.8959
298.15 K, m1 = 0.0257	997.83	0.8985
298.15 K, m1 = 0.02702	997.91	–
298.15 K, m1 = 0.03133	998.11	0.9017
298.15 K, m1 = 0.03789	998.27	0.9028
298.15 K, m1 = 0.04282	998.42	–
298.15 K, m1 = 0.0455	–	0.905
298.15 K, m1 = 0.05256	–	0.9074
298.15 K, m1 = 0.05544	998.81	–
298.15 K, m1 = 0.05776	–	0.9102
298.15 K, m1 = 0.06453	–	0.9122
298.15 K, m1 = 0.06825	999.2	–
298.15 K, m1 = 0.06989	999.21	0.9136
298.15 K, m1 = 0.08417	999.71	–
298.15 K, m1 = 0.08956	–	0.9197
298.15 K, m1 = 0.09767	1000.15	–
298.15 K, m1 = 0.1088	1000.49	–
298.15 K, m1 = 0.1136	1000.66	0.9285
298.15 K, m1 = 0.1266	1001.01	–
298.15 K, m1 = 0.1377	1001.33	–
303.15 K, m1 = 0.01287	996.07	–
303.15 K, m1 = 0.0154	996.08	0.8022
303.15 K, m1 = 0.0257	996.56	0.806
303.15 K, m1 = 0.02702	996.51	–
303.15 K, m1 = 0.03133	996.64	0.8073
303.15 K, m1 = 0.03789	996.83	0.8085
303.15 K, m1 = 0.04282	996.99	–
303.15 K, m1 = 0.0455	–	0.8116
303.15 K, m1 = 0.05256	–	0.8134
303.15 K, m1 = 0.05544	997.38	–
303.15 K, m1 = 0.05776	–	0.8148
303.15 K, m1 = 0.06453	–	0.8157
303.15 K, m1 = 0.06825	997.72	–
303.15 K, m1 = 0.06989	997.73	0.8172
303.15 K, m1 = 0.08417	998.28	–
303.15 K, m1 = 0.08956	–	0.8233
303.15 K, m1 = 0.09767	998.74	–
303.15 K, m1 = 0.1088	999.01	–
303.15 K, m1 = 0.1136	999.1	0.8297
303.15 K, m1 = 0.1266	999.56	–
303.15 K, m1 = 0.1377	999.93	–
308.15 K, m1 = 0.01287	994.41	–
308.15 K, m1 = 0.0154	994.45	0.7229
308.15 K, m1 = 0.0257	994.79	0.7255
308.15 K, m1 = 0.02702	994.89	–
308.15 K, m1 = 0.03133	994.96	0.7275
308.15 K, m1 = 0.03789	995.17	0.7285
308.15 K, m1 = 0.04282	995.34	–
308.15 K, m1 = 0.0455	–	0.7309
308.15 K, m1 = 0.05256	–	0.7323
308.15 K, m1 = 0.05544	995.71	–
308.15 K, m1 = 0.05776	–	0.7334
308.15 K, m1 = 0.06453	–	0.7353
308.15 K, m1 = 0.06825	996.07	–
308.15 K, m1 = 0.06989	996.09	0.7362
308.15 K, m1 = 0.08417	996.55	–
308.15 K, m1 = 0.08956	–	0.7406
308.15 K, m1 = 0.09767	996.95	–
308.15 K, m1 = 0.1088	997.25	–
308.15 K, m1 = 0.1136	997.47	0.7457
308.15 K, m1 = 0.1266	997.79	–
308.15 K, m1 = 0.1377	998.16	–
313.15 K, m1 = 0.01287	992.54	–
313.15 K, m1 = 0.0154	992.58	0.6559
313.15 K, m1 = 0.0257	992.89	0.6585
313.15 K, m1 = 0.02702	993.01	–
313.15 K, m1 = 0.03133	993.19	0.66
313.15 K, m1 = 0.03789	993.29	0.6612
313.15 K, m1 = 0.04282	993.45	–
313.15 K, m1 = 0.0455	–	0.6625
313.15 K, m1 = 0.05256	–	0.6639
313.15 K, m1 = 0.05544	993.89	–
313.15 K, m1 = 0.05776	–	0.6643
313.15 K, m1 = 0.06453	–	0.6663
313.15 K, m1 = 0.06825	994.21	–
313.15 K, m1 = 0.06989	994.21	0.6674
313.15 K, m1 = 0.08417	994.66	–
313.15 K, m1 = 0.08956	–	0.6708
313.15 K, m1 = 0.09767	995.03	–
313.15 K, m1 = 0.1088	995.33	–
313.15 K, m1 = 0.1136	995.47	0.6754
313.15 K, m1 = 0.1266	995.88	–
313.15 K, m1 = 0.1377	996.19	–

O [water] + O=C(O)CCCCC(=O)O
m2 = 0
Details	viscosity [mPa·s]
293.15 K	1.002
298.15 K	0.8904
303.15 K	0.7975
308.15 K	0.7194
313.15 K	0.653
